Test results taken from patent publication US20230210803A1, “TRANS-CROCETIN COMPOSITIONS AND TREATMENT REGIMENS” (L.E.A.F. HOLDINGS GROUP LLC, priority 2020, published 2023).

Legend:
[1] = PK of L4L-121 versus free TC in healthy mice; details: mouse, in vivo, one intravenous injection 2.5 mg/kg (normalized to TC)
Source text: […]. […] […]. […] […]

[2] = tested on: HUVECs; assay: Reoxygenation of HUVECs under hypoxic conditions (BioTracker 520 Green Hypoxia Dye, flow cytometry); details: continuous hypoxic conditions (1% PO2)
[3] = Liposomal CTC and MTC PK in mice; parameters: species or system Balb/c mice; details: mouse, in vivo
[4] = mouse, in vivo, iv, 50 mg/kg

With CC(/C=C/C=C(\C)C(=O)O)=C\C=C\C=C(C)\C=C\C=C(/C)C(=O)O [free TC, trans-crocetin free acid] the half-life [1] was 37.1 min, the AUC ([1]; read-out: exposure (AUC)) was 2700 ng·h/mL and the “reoxygenation effect (PO2)” value ([2]; 5 μg/mL TC, 30 min post-treatment) was “up to 15 % PO2”. The “PO2 after loss of efficacy” value ([2]; 3 h after treatment) was 5 % PO2.

With CC(/C=C/C=C(\C)C(=O)[O-])=C\C=C\C=C(C)\C=C\C=C(/C)C(=O)[O-].[Na+].[Na+] [STC free drug, sodium trans-crocetinate] the “half-life (t1/2)” value [3] was “half an hour” and the T½ [4] was “less than 0.5 h”.
